Laboratory results published in patent EP1123387B1, “MN GENE AND PROTEIN” (INSTITUTE OF VIROLOGY, priority 1998, dated 2000).
Where two headings read alike, the source gives them in different places. Where a SMILES comes first, the peptide text is derived from it.

Columns and labels:
MAb M75 = assay: Competition ELISA with M75 (antigen competing for M75); assay type: binding, mouse; settings: for concentration causing 50% inhibition: GST-MN adsorbed, MAb 75 ascites fluid 10^-6; for reactive with the M75 MAb: test not given
Experimental: (§1) ELISA. Purified GST-MN [Zavada et al. (1993), supra] at concentration 10 ng /ml in carbonate buffer pH 9.2 was adsorbed for 3 h in Maxisorb strips (NUNC). After washing and blocking (1 h) with 0.05% Tween 20 in PBS, 50µl/well of the antibody + antigen mixtures were added. […] These mixtures were adsorbed for 1.5 h, followed by washing with Tween-PBS. Bound antibody was detected by antimouse lgG conjugate with peroxidase (SwAM-Px, SEVAC, Prague), diluted 1:1000. In the color reaction OPD (o-phenylenediamine dihydrochloride, Sigma) 1 mg/ml in 0.1 M citrate buffer pH 5.0 was used. To this H2O2 was added to final concentration 0.03%. This system is balanced so as to allow assay for antigen competing for M75 as well as for peptides binding to the epitope of immobilized GST-MN.
Identification of the epitope recognized by Mab M75. Preliminary mapping of M75 epitope employing partial sequences of extracellular parts of MN/CA9 cDNA expressed from bacterial vectors and tested on Western blots located it in PG region. For exact mapping, our strategy was to synthesize partially overlapping oligopeptides of 15-25 aa covering the PG domain and test them in competition ELISA with M75. According to the results, this was followed by a series of 6-12 aa oligopeptides. A major part of the PG domain consists of a 6-fold tandem repeat of 6 aa (aa 61 - 96) [SEQ ID NO: 97]; 4 repeats are identical (GEEDLP) [SEQ ID NO: 98] and 2 contain 2 aa exchanged (SEEDSP [SEQ ID NO: 141] and REEDPP [SEQ ID NO: 142]).

MN/CA IX = MN/CA IX (Homo sapiens, UniProt Q16790); assay: Cell adhesion assay of Example 2 (inhibition of cell attachment to MN/CA IX dots); assay type: cell-based; settings: nonapeptides of 7 + 2 aa
[1] = biological target: T1, epitope of immobilized GST-MN (Homo sapiens, UniProt Q16790); assay: Competition ELISA (peptides binding to the epitope of immobilized GST-MN); settings: nonapeptides of 7 + 2 aa
T1 construct: expressed from pGEX-3X-MN containing the cDNA for the MN protein without the signal peptide; made in house; host or cells: bacteria (E. coli XL1-Blue)
Experimental: as §1
MN/CA IX. As an alternative to monoclonal antibodies, we set out to select oligopeptides exerting affinity to M75 epitope as well as to MN/CA IX receptor binding site from a phage display library of random heptapeptides - Ph.D.-7. Our aim was to select phages containing the desired heptapeptides by panning on immobilized peptide SEQ ID NO: 106 and subsequent elution with M75. Eluted phage was multiplied in appropriate bacteria and subjected to 4 more cycles of panning and elution. From the selected phage population, 10 plaques were picked, amplified and the heptapeptide-coding region was sequenced. Only 3 heptapeptides were represented. Those three heptapeptides, after adding alanine on both sides, are the following nonapeptides: […] [SEQ ID NO: 137]; […] [SEQ ID NO: 138]; and […] [SEQ ID NO: 139]. The last heptapeptide, synthesized again with added terminal alanines as nonapeptide […] [SEQ ID NO: 140], was identified by panning on GST-MN and eluted with acetazolamide. This last peptide has affinity to the active site of MN/CA IX carbonic anhydrase. We synthesized these peptides of 7 + 2 aa and tested them in competition ELISA and in cell adhesion inhibition. […] In all of those 4 nonapeptides, the C-terminal […] as amide.

[2] = Tolerance of cell cultures to acetazolamide; assay type: cell-based, mouse; settings: mouse, nih3t3 cells; confluent cultures, 3 days; read-out: concentration tolerated without any signs of toxicity and without any effect on cell morphology
NIH3T3 cells = assay: Tolerance of cell cultures to acetazolamide; assay type: cell-based, mouse; settings: sparse cultures
[3] = Tolerance of cell cultures to acetazolamide; assay type: cell-based, human; settings: human, hela cells; confluent cultures, 3 days; read-out: concentration tolerated without any signs of toxicity and without any effect on cell morphology
HeLa = assay: Tolerance of cell cultures to acetazolamide; assay type: cell-based, human; settings: sparse cultures
[4] = test system: NIH3T3 cells freshly transformed with the [pGD.MN + MLV] complex; assay: Effect on morphologic transformation by MN; assay type: cell-based, mouse; settings: 10^-5M, 4 days of incubation
Experimental: Thus, 10^-5M acetazolamide was added to NIH3T3 cells freshly transformed with the [pGD.MN + MLV] complex. After 4 days of incubation, the colonies were fixed and stained. No difference was seen between cells growing in the presence or absence of acetazolamide; both were indistinguishable from correctly transformed NIH3T3 cells. Thus, the enzymatic activity of carbonic anhydrase is not relevant for the transforming activity of MN protein.

[5] = test system: Rat2TK- cells and C33 human cervical carcinoma cells transfected with pMN-HSVtk

Molecule | reactive with the M75 MAb (MAb M75) | activity in cell adhesion inhibition (MN/CA IX) | activity in competition ELISA [1] | further results
EDPPGEEDLPGEEDLPGEEDLPEVC [SEQ ID NO: 106] | reactive | – | – | concentration causing 50% inhibition (MAb M75; competition ELISA): 1 ng/mL
CSCC[C@H](NC(=O)[C@H](CCCCN)NC(=O)[C@H](CCCCN)NC(=O)[C@H](C)N)C(=O)N[C@@H](CCCCN)C(=O)N[C@@H](CCCNC(=N)N)C(=O)N[C@@H](CCCNC(=N)N)C(=O)N[C@@H](CCCCN)C(=O)N[C@@H](C)C(N)=O [SEQ ID NO: 137] (H-AKKMKRRKA-NH2) | – | less active | less active | –
CC(=O)Nc1nnc(S(N)(=O)=O)s1 [acetazolamide] | – | – | – | MNTC at 72 h [2]: 10 to 1000 µM; cell growth (NIH3T3 cells; 10^-4M): partial inhibition; cell growth (NIH3T3 cells; 10^-5M): did not inhibit cell growth; MNTC at 72 h [3]: 10 to 1000 µM; cell growth (HeLa; 10^-4M): partial inhibition; cell growth (HeLa; 10^-5M): did not inhibit cell growth; difference between transformed cells growing in the presence or absence of the drug [4]: No difference
Nc1nc(O)c2ncn(COC(CO)CO)c2n1 [GVC, ganciclovir] | – | – | – | cells killed [5]: up to 95%
CC[C@H](C)[C@H](NC(=O)[C@H](C)N)C(=O)N[C@H](C(=O)N[C@@H](Cc1ccccc1)C(=O)N[C@@H](CC(N)=O)C(=O)N[C@@H](C)C(=O)N[C@@H](CCC(N)=O)C(=O)N[C@@H](Cc1ccc(O)cc1)C(=O)N[C@@H](C)C(N)=O)[C@@H](C)O [SEQ ID NO: 138] (H-AITFNAQYA-NH2) | – | highest activity | highest activity | –
CC(C)[C@H](NC(=O)[C@@H]1CCCN1C(=O)[C@H](C)NC(=O)[C@H](CO)NC(=O)[C@H](C)NC(=O)[C@H](CO)NC(=O)[C@H](C)N)C(=O)N[C@@H](CO)C(=O)N[C@@H](C)C(N)=O [SEQ ID NO: 139] (H-ASASAPVSA-NH2) | – | marginally positive only in ELISA | marginally positive | –
GGSSGEDDPLGEEDLPSEEDSPC [SEQ ID NO: 104] | reactive | – | – | concentration causing 50% inhibition (MAb M75; competition ELISA): 1 ng/mL
GEEDLPSEEDSPREEDPPGEEDLPGEC [SEQ ID NO: 105] | reactive | – | – | fold less active (than SEQ ID NOS: 104 and 106) (MAb M75; competition ELISA): 1000 x
CC(C)C[C@H](NC(=O)[C@@H]1CCCN1C(=O)[C@H](CO)NC(=O)[C@H](CCCNC(=N)N)NC(=O)[C@@H](NC(=O)[C@H](CCC(N)=O)NC(=O)CNC(=O)[C@H](C)N)[C@@H](C)O)C(=O)N[C@@H](C)C(N)=O [SEQ ID NO: 140] (H-AGQTRSPLA-NH2) | – | inactive | inactive | –
